Results reported in PubChem BioAssay (NCI).
“And” between values parts separate entries of the source, which are not always exact repeats. Identical values can stand only once.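 Exposure lasted 48 hours, with cells grown in 96-well plates and compounds tested at five concentrations. GI50 is the concentration that inhibits growth by half. TGI marks complete inhibition of growth.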

Columns and labels:
Test in all cases: NCI tumour cell line growth inhibition, 48 h
HCC-2998 colon = test system: HCC-2998 colon
HCT-116 colon = test system: HCT-116 colon
KM12 colon = test system: KM12 colon
M14 melanoma = test system: M14 melanoma
MCF7 breast = test system: MCF7 breast
MDA-MB-231 breast = test system: MDA-MB-231 breast
SF-539 CNS = test system: SF-539 CNS
SK-MEL-2 melanoma = test system: SK-MEL-2 melanoma
SNB-19 CNS = test system: SNB-19 CNS
SNB-75 CNS = test system: SNB-75 CNS

SMILES | GI50 (HCC-2998 colon) [µM] | TGI (HCC-2998 colon) [µM] | GI50 (HCT-116 colon) [µM] | TGI (HCT-116 colon) | GI50 (KM12 colon) [µM] | TGI (KM12 colon) | GI50 (M14 melanoma) [µM] | TGI (M14 melanoma) | GI50 (MCF7 breast) [µM] | TGI (MCF7 breast) | GI50 (MDA-MB-231 breast) [µM] | TGI (MDA-MB-231 breast) | GI50 (SF-539 CNS) [µM] | TGI (SF-539 CNS) | GI50 (SK-MEL-2 melanoma) [µM] | TGI (SK-MEL-2 melanoma) | GI50 (SNB-19 CNS) | TGI (SNB-19 CNS) | GI50 (SNB-75 CNS) [µM] | TGI (SNB-75 CNS)
COC(=O)[C@]12CC[C@@H](C)[C@H](C)[C@@H]1C1=CC[C@@H]3[C@@]4(C)C(C=O)=C[C@@](C)(COC(C)=O)C4=CC[C@@]3(C)[C@]1(C)CC2 | 3.32 | 12.4 | 2.47 | 10.4 µM | 3.49 | 14.9 µM | 5.27 | 22.4 µM | 2.99 | 12.5 µM | 5.74 | 23.5 µM | 10.5 | 26 µM | 4.71 | 16.1 µM | 5.25 µM | 25.6 µM | 2.91 | 19.2 µM
N#Cc1ccccc1NC(=O)C(=O)c1c(O)c2ccccc2oc1=O |  | > 100 |  | > 100 µM |  | > 100 µM |  | > 100 µM |  | > 100 µM |  | > 100 µM |  | > 100 µM |  | > 100 µM |  | > 100 µM |  | > 100 µM
CN(C)CCNC(=O)C(C)(C)Oc1ccc(C(=O)c2ccc(Cl)cc2)cc1Cl |  | 16.7 |  | 20 µM |  | 23 µM | 1.82 | 3.67 µM and 5.99 µM | 3.8 | 24.3 µM | 2.25 | 4.93 µM and 23.6 µM |  | 22.2 µM |  | 32.6 µM |  | 26 µM | 9.71 | 24.8 µM
O=[N+]([O-])c1ccc(Sc2ncnc3nc[nH]c23)c2nonc12 | 4.6 | 27.6 | 2.59 | 12.9 µM | 15.1 | > 100 µM | 0.94 | 13.5 µM | 1.72 | 12.2 µM | 8.15 | 24.2 µM | 4.53 | 21.5 µM | 4.36 | 15.9 µM | 20.8 µM | 41.9 µM | 1.83 | 14 µM
CCOC(=O)c1c(C)n2c(=O)cc(C)c3c(O)c(O)cc1c32 | 40.8 | > 100 | 18.5 | 35.5 µM | 4.13 | 42.2 µM | 53.3 | > 100 µM | 6.61 | > 100 µM | 4.49 | 30.2 µM | 16.6 | 55.3 µM | 20.9 | > 100 µM | 8.72 µM | > 100 µM | 35.6 | > 100 µM
C[C@H](Nc1ncnc2nc[nH]c12)c1cc2ccc(F)cc2nc1-c1ccccn1 | > 100 | > 100 | > 100 | > 100 µM | > 100 | > 100 µM | > 100 | > 100 µM | 28.4 | > 100 µM | > 80 | > 100 µM | > 94.7 | > 100 µM | > 100 | > 100 µM | > 100 µM | > 100 µM | 2.68 | 60.5 µM
COc1ccc(C(=O)COC(=O)[C@H](C[Se][Se]C[C@H](NC(=O)c2ccc(Br)cc2F)C(=O)OCC(=O)c2ccc(OC)cc2)NC(=O)c2ccc(Br)cc2F)cc1 | 0.617 | 1.85 | 0.949 | 2.78 µM | 0.376 | 1.55 µM | 0.588 | 1.85 µM | 1.52 | 4.1 µM | 0.846 | 2.77 µM | 0.321 | 0.976 µM | 0.862 | 2.57 µM | 0.427 µM | 4.9 µM | 0.347 | 1.26 µM
Cn1cc(C2=C(c3cn(C)c4c([N+](=O)[O-])cccc34)C(=O)NC2=O)c2ccccc21 | > 25 | > 25 | > 25 | > 25 µM | > 25 | > 25 µM | > 25 | > 25 µM | > 25 | > 25 µM | > 25 | > 25 µM | > 25 | > 25 µM | > 25 | > 25 µM | > 25 µM | > 25 µM | > 25 | > 25 µM
Cl.Fc1c[c-]c(-c2ccccn2)c(F)c1.[Pt].c1ccc(P(c2ccccc2)C([PH+](c2ccccc2)c2ccccc2)[PH+](c2ccccc2)c2ccccc2)cc1 | 4.43 | 29.6 | 2.72 | 12.3 µM | 3.55 | 14.7 µM | 3.13 | 53 µM | 2.95 | > 100 µM | 2.28 | 7.06 µM | 3.18 | 11.3 µM | 2.54 | 6.7 µM | 4.88 µM | > 100 µM | 2.01 | 9.5 µM
COc1ccc2c(c1)[nH]c(=O)c1c3cc(OC)ccc3cn21 | 0.0159 | 0.0701 | < 0.01 | 1.08 µM | < 0.01 | 0.393 µM | < 0.01 | 1.34 µM | 0.0277 | 0.597 µM | 0.0431 | 0.985 µM | 0.0179 | 0.0498 µM | 0.0538 | 2.43 µM | 0.0774 µM | 4.32 µM | 0.0187 | 1.61 µM
CN(Cc1cc(Br)cc(Br)c1O)Cc1cc(Br)cc(Br)c1O | 3.5 | 17 | 0.812 | 12.3 µM | 3.81 | 16.4 µM | 1.69 | 15.6 µM | 2.96 | 15 µM | 3.26 | 19.6 µM | 2.61 | 20.2 µM | 2.87 | 11.8 µM | 4.86 µM | 36 µM | 12.9 | 49.3 µM
CC1(C)CCC2=C(O1)c1ccccc1C(=O)C2=O | 1.76 | 3.25 | 0.511 | 2.01 µM and 0.738 µM | 1.7 | 3.38 µM and 2.13 µM | 1.69 | 3.31 µM and 0.801 µM | 1.53 | 3.6 µM and 1.05 µM | 2.01 | 5.55 µM and 1.67 µM | 1.63 | 2.99 µM and 0.918 µM | 2.05 | 4.13 µM and 3.07 µM | 1.6 µM and 1.71 µM | 3.08 µM and 3.11 µM | 1.64 | 3.01 µM and 1.35 µM
C[C@]12CC[C@H](O)C[C@H]1CC[C@@H]1[C@@H]2CC[C@]2(C)[C@@H](C3=CC(=O)OC3)[C@@H](O)C[C@]12O |  | 6.7 |  | 4.37 µM |  | 18.2 µM |  | 5.58 µM |  | 11.1 µM |  | 20.1 µM |  | 2.28 µM |  | 5.02 µM |  | 15.5 µM |  | 16.7 µM
